According to ChEMBL document CHEMBL3627608, “Crystal structures of human RIP2 kinase catalytic domain complexed with ATP-competitive inhibitors: Foundations for understanding inhibitor selectivity” (Bioorg Med Chem, 2015):

What was measured:
[1] = molecular target: T1, Rhodopsin kinase GRK1 (Homo sapiens) (UniProt Q15835); assay: Inhibition of GRK1 (unknown origin) at 10 uM after 120 mins P33 radiolabeled kinase activity assay
T1 sequence (whole entry): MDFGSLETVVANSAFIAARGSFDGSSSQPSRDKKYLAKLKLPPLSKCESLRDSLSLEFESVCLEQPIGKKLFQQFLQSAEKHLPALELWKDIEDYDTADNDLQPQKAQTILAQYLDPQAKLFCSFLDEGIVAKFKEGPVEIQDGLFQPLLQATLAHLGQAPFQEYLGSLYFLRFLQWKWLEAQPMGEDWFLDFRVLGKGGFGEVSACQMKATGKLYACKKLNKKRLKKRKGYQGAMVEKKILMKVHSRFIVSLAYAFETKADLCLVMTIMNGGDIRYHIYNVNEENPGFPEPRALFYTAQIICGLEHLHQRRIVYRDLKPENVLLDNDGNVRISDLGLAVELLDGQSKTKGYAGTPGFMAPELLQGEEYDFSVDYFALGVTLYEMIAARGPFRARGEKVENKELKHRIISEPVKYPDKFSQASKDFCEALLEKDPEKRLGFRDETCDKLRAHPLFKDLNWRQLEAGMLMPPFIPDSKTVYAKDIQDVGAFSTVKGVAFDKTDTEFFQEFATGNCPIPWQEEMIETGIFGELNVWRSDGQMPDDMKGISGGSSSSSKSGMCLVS

[2] = molecular target: Mitogen-activated protein kinase 1 (Homo sapiens) (UniProt P28482); assay: Inhibition of ERK2 (unknown origin) at 10 uM after 120 mins P33 radiolabeled kinase activity assay
Sequence of Mitogen-activated protein kinase 1 (Homo sapiens) (P28482 whole entry): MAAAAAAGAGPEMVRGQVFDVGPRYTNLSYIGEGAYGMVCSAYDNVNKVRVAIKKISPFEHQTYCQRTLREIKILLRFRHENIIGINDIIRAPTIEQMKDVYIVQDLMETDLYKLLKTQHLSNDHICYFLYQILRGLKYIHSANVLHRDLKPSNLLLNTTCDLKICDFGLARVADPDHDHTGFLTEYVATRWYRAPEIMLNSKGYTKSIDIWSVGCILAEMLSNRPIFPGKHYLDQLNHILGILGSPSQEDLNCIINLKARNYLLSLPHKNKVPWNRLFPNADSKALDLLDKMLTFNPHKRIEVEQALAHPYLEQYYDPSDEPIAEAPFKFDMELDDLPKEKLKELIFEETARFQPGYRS

[3] = molecular target: Receptor-type tyrosine-protein kinase FLT3 (Homo sapiens) (UniProt P36888); assay: Inhibition of FLT3 (unknown origin) at 10 uM after 120 mins P33 radiolabeled kinase activity assay
Sequence of Receptor-type tyrosine-protein kinase FLT3 (Homo sapiens) (P36888 whole entry): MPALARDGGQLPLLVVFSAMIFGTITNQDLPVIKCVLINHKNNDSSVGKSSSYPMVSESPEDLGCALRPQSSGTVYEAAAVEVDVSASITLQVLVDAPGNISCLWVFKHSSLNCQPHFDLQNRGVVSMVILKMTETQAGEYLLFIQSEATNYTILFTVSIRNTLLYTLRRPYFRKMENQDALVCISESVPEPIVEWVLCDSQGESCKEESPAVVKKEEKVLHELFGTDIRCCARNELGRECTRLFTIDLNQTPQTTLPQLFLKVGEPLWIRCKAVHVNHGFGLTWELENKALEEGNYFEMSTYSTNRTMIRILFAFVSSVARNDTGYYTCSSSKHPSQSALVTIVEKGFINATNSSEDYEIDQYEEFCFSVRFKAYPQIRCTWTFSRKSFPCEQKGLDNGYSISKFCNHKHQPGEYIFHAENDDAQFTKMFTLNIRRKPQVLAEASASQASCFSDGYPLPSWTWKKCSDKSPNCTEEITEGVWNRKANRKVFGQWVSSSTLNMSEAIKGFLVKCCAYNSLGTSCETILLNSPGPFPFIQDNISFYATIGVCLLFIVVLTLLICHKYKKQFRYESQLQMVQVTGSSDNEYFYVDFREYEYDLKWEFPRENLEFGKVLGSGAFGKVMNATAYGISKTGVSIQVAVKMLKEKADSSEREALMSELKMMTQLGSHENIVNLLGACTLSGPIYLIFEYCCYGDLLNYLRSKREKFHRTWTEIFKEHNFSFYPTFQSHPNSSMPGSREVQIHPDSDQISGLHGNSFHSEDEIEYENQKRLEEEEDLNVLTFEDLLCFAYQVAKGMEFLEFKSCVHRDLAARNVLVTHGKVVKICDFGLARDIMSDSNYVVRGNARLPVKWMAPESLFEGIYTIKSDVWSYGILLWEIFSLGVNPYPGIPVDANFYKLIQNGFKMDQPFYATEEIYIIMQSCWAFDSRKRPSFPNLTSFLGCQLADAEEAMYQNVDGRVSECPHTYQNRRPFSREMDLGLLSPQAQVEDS

[4] = molecular target: Hepatocyte growth factor receptor (Homo sapiens) (UniProt P08581); assay: Inhibition of c-MET (unknown origin) at 10 uM after 120 mins P33 radiolabeled kinase activity assay
[5] = molecular target: Tyrosine-protein kinase Fer (Homo sapiens) (UniProt P16591); assay: Inhibition of FER (unknown origin) at 10 uM after 120 mins P33 radiolabeled kinase activity assay
Sequence of Tyrosine-protein kinase Fer (Homo sapiens) (P16591 whole entry, looked up): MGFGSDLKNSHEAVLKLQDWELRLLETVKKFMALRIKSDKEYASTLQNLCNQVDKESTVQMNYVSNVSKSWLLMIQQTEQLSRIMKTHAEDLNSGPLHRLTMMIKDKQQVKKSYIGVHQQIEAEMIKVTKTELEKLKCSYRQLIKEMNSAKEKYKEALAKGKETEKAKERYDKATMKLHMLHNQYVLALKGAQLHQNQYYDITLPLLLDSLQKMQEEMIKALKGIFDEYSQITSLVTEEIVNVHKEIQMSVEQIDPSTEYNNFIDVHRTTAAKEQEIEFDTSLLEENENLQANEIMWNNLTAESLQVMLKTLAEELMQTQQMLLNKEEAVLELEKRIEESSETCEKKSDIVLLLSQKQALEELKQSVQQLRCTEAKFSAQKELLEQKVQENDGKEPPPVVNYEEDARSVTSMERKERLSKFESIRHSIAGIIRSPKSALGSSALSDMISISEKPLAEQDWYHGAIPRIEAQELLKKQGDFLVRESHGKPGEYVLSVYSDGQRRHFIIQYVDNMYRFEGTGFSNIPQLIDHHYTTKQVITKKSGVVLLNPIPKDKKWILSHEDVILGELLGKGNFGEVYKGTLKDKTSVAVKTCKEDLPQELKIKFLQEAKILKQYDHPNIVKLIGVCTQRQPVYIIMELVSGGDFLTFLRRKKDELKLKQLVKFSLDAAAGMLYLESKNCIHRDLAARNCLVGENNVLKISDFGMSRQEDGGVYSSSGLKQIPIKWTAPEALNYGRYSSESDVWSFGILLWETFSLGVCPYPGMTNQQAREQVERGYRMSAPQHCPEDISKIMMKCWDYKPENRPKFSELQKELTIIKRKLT

[6] = molecular target: Serine/threonine-protein kinase MARK2 (Homo sapiens) (UniProt Q7KZI7); assay: Inhibition of MARK2 (unknown origin) at 10 uM after 120 mins P33 radiolabeled kinase activity assay
Sequence of Serine/threonine-protein kinase MARK2 (Homo sapiens) (Q7KZI7 whole entry): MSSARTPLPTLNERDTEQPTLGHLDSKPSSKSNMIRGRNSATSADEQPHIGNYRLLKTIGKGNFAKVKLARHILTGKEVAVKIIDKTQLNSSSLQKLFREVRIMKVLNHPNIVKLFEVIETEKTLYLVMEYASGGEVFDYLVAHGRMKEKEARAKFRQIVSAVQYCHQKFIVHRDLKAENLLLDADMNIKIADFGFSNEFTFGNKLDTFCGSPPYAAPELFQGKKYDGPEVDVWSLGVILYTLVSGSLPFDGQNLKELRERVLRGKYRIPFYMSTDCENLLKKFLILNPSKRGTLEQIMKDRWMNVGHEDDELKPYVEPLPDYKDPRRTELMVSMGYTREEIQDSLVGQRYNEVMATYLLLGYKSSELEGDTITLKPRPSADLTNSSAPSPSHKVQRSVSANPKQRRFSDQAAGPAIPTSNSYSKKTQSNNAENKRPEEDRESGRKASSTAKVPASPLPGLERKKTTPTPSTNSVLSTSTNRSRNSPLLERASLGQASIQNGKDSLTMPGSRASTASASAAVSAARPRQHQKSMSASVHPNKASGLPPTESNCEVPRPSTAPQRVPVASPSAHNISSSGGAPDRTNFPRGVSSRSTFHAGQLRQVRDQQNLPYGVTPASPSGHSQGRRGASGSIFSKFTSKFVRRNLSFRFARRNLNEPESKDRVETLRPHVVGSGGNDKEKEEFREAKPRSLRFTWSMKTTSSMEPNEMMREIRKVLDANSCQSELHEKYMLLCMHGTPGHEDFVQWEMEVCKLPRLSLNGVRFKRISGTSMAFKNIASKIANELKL

[7] = molecular target: T2, Serine/threonine-protein kinase NLK (Homo sapiens) (UniProt Q9UBE8); assay: Inhibition of NLK (unknown origin) at 10 uM after 120 mins P33 radiolabeled kinase activity assay
T2 sequence (whole entry): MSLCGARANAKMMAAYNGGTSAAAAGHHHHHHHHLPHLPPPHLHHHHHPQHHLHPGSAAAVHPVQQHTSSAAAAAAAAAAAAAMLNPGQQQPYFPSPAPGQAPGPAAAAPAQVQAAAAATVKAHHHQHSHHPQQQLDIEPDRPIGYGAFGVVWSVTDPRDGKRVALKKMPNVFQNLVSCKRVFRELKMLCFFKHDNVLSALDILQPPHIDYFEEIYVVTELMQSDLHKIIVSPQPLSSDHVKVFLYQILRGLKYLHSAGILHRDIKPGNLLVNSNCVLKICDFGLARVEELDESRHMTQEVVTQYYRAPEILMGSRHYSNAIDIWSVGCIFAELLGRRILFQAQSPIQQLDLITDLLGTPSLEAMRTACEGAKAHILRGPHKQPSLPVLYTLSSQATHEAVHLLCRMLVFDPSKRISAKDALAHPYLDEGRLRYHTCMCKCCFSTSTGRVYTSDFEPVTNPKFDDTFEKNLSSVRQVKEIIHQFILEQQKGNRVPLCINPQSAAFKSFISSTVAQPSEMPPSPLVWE

[8] = molecular target: cAMP-dependent protein kinase (PKA) (Homo sapiens) (UniProt P22694+P17612+P22612); assay: Inhibition of PKA (unknown origin) at 10 uM after 120 mins P33 radiolabeled kinase activity assay; format: protein assay
[9] = molecular target: T3, Mitogen-activated protein kinase kinase kinase 7 (Homo sapiens) (UniProt O43318); assay: Inhibition of TAK1 (unknown origin) at 10 uM after 120 mins P33 radiolabeled kinase activity assay
T3 sequence (whole entry): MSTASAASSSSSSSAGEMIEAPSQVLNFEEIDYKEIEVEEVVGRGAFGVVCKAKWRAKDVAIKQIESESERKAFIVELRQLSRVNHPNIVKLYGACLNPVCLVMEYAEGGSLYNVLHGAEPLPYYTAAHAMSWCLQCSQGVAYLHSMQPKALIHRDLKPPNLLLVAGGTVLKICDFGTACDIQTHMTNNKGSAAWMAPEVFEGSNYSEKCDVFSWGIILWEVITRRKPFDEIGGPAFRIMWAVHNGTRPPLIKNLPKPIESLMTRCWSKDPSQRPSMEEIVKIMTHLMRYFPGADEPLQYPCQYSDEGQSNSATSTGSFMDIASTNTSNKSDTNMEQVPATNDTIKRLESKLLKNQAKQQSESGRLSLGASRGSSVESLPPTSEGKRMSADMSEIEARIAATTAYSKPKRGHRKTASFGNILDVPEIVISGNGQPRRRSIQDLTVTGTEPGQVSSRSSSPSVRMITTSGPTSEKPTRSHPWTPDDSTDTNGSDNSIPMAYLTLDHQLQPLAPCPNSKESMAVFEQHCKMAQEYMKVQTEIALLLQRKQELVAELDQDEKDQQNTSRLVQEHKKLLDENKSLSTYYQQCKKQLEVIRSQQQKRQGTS

[10] = molecular target: Ephrin type-A receptor 2 (Homo sapiens) (UniProt P29317); assay: Inhibition of EPHA2 (unknown origin) at 10 uM after 120 mins P33 radiolabeled kinase activity assay
Sequence of Ephrin type-A receptor 2 (Homo sapiens) (P29317 whole entry): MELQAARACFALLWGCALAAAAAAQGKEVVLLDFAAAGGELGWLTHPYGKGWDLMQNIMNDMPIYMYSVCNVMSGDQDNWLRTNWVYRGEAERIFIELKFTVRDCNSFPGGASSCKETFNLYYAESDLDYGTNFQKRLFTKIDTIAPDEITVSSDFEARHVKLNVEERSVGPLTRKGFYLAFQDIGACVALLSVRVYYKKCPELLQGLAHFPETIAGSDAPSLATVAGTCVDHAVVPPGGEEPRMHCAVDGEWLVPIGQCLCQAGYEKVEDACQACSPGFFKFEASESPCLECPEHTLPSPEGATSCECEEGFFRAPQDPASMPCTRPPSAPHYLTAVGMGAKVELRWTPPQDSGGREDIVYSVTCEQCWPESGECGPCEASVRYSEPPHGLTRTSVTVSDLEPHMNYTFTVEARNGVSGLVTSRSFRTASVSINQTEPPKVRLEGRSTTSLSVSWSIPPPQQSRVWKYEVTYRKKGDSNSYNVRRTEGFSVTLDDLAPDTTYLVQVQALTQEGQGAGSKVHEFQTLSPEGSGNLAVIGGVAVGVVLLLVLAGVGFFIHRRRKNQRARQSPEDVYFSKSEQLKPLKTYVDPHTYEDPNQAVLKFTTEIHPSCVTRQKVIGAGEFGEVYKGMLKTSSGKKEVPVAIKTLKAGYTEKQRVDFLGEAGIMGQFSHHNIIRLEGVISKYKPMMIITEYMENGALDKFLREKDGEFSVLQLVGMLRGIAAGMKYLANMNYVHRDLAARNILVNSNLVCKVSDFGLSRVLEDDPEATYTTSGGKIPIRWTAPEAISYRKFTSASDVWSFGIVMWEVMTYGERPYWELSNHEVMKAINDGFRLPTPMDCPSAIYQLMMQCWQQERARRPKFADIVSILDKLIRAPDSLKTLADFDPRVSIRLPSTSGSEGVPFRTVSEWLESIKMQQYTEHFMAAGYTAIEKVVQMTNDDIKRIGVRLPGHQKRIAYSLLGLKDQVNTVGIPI

[11] = molecular target: Calcium/calmodulin-dependent protein kinase type 1 (Homo sapiens) (UniProt Q14012); assay: Inhibition of CAMK1alpha (unknown origin) at 10 uM after 120 mins P33 radiolabeled kinase activity assay
Sequence of Calcium/calmodulin-dependent protein kinase type 1 (Homo sapiens) (Q14012 whole entry, looked up): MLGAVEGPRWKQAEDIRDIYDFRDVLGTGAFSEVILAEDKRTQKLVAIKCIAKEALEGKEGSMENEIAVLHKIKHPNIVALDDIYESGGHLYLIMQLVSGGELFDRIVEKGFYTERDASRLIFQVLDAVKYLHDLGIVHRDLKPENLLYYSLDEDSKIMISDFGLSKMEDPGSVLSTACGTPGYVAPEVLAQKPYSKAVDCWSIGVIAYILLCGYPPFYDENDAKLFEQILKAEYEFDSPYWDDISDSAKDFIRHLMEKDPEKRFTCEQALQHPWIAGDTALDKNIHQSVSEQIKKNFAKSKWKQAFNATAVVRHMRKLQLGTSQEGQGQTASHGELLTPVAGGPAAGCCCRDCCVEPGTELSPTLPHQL

[12] = molecular target: Serine/threonine-protein kinase 3 (Homo sapiens) (UniProt Q13188); assay: Inhibition of MST2 (unknown origin) at 10 uM after 120 mins P33 radiolabeled kinase activity assay
[13] = molecular target: Casein kinase I isoform gamma-2 (Homo sapiens) (UniProt P78368); assay: Inhibition of CK1gamma2 (unknown origin) at 10 uM after 120 mins P33 radiolabeled kinase activity assay
Sequence of Casein kinase I isoform gamma-2 (Homo sapiens) (P78368 whole entry, looked up, canonical isoform): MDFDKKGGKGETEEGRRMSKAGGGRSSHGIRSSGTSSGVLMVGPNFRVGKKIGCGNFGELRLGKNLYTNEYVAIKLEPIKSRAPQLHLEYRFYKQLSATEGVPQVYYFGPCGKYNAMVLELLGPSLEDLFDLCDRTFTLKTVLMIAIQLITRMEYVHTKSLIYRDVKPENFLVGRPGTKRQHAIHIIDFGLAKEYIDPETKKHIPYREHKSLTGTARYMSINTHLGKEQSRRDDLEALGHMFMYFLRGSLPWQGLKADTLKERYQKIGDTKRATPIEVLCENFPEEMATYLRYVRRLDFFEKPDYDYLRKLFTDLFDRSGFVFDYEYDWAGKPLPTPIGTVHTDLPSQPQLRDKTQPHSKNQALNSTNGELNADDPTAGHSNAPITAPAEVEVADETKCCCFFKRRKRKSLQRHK

[14] = molecular target: Tau-tubulin kinase 1 (Homo sapiens) (UniProt Q5TCY1); assay: Inhibition of TTBK1 (unknown origin) at 10 uM after 120 mins P33 radiolabeled kinase activity assay
[15] = molecular target: Cyclin-dependent kinase 4/cyclin D1 (Homo sapiens) (UniProt P11802+P24385); assay: Inhibition of CDK4/cyclin D1 (unknown origin) at 10 uM after 120 mins P33 radiolabeled kinase activity assay; format: protein-complex assay
[16] = molecular target: LIM domain kinase 2 (Homo sapiens) (UniProt P53671); assay: Inhibition of LIMK2 (unknown origin) at 10 uM after 120 mins P33 radiolabeled kinase activity assay
[17] = molecular target: Cyclin-Y/Cyclin-dependent kinase 16 (Homo sapiens) (UniProt Q00536+Q8ND76); assay: Inhibition of CDK16/cyclin Y (unknown origin) at 10 uM after 120 mins P33 radiolabeled kinase activity assay; format: protein-complex assay

| inhibition [1] | inhibition [2] | inhibition [3] | inhibition [4] | inhibition [5] | inhibition [6] | inhibition [7] | inhibition [8] | inhibition [9] | inhibition [10] | inhibition [11] | inhibition [12] | inhibition [13] | inhibition [14] | inhibition [15] | inhibition [16] | inhibition [17] | SMILES |
| --- | --- | --- | --- | --- | --- | --- | --- | --- | --- | --- | --- | --- | --- | --- | --- | --- | --- |
| 11.4% | 1.34% | 27.6% | 10.9% | 0.68% | 2.7% | 55.2% | 7.76% | 6.56% | 19.6% | 2.42% | -5.33% | 11.4% | 7.91% | -1.3% |  |  | COCCNC(=O)c1ccc2c(c1)nc(-c1cnc(-c3ccc(Cl)cc3)[nH]1)n2CCOC |
| 6.04% | -2.5% | 95.7% | 16.8% | 65.2% | 10.9% | 88.6% | 6.72% | 83% | 68% | 96.3% |  | 34.5% |  | 74.5% | 99.1% | 92% | CS(=O)(=O)c1cccc(Nc2nccc(-c3sc(N4CCOCC4)nc3-c3cccc(NS(=O)(=O)c4c(F)cccc4F)c3)n2)c1 |
| 7.39% | -0.63% | 98.6% | 92.4% | 19.9% | 3.84% | 51.5% | 80.5% | 83.8% | 97.3% | 15% | -4.9% | 20.1% | 8.16% | 43% | 53.8% | 84.5% | CC(C)(C)c1cc(NC(=O)Nc2ccc(Oc3ccncc3)cc2)no1 |
